Where two headings read alike, the source gives them in different places.
What was measured:
[1] = biological target: T1, His-GST-TVMV-hRIPK1(1-324) (Homo sapiens, UniProt Q13546); assay: RIPK1 HTRF Binding Assay
T1 construct: The coding region of human RIPK1(1-324) flanked by NdeI site at 5′ end; made in house; host or cells: Spodoptera frugiperda (Sf9) insect cells, baculovirus
T1 sequence (Q13546 1-324): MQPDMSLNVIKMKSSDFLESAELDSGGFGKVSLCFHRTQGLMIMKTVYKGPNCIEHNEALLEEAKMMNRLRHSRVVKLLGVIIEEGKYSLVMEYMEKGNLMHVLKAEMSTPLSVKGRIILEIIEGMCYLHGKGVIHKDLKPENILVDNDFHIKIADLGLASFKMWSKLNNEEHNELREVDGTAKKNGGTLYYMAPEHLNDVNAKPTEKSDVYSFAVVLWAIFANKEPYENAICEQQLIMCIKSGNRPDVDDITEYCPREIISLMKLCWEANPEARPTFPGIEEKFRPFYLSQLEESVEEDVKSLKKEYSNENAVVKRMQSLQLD

[2] = system: MLKL phosphorylation in HT29-L23 human colorectal adenocarcinoma cells; assay: MLKL Phosphorylation High-Content Assay; type: cell-based; conditions: Homo sapiens
In short: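 Cells incubated six hours at 37° C., then phospho-MLKL (S358) immunostained overnight at 4° C. and imaged by high-content microscopy. Phosphorylation quantified as mean circ-ring average intensity ratio; IC50 and Ymax from 4-parameter logistic fits.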

[3] = x marks IC50 class <20 nM, read-out: RIPK1 HTRF binding <20 nM
[4] = x marks IC50 class 20-200 nM, read-out: pMLKL cell activity 20-200 nM
[5] = x marks IC50 class <20 nM, read-out: pMLKL cell activity <20 nM
[6] = x marks IC50 class 20-200 nM, read-out: RIPK1 HTRF binding 20-200 nM
[7] = x marks IC50 class >200 nM, read-out: pMLKL cell activity >200 nM

In the case of CCc1ncc(-c2ccn3nc(N)nc3c2)cc1C(=O)NCCC(C)c1ccccc1 (stereo not shown) [Example 66, 5-{2-Amino-[1,2,4]triazolo[1,5-a]pyridin-7-yl}-2-ethyl-N-(3-phenylbutyl)pyridine-3-carboxamide], the IC50 [1, 3] is reported as under 0.02 µM and the IC50 [2, 4] is reported as 0.02 to 0.2 µM.

Cc1ncc(-c2ccn3nc(N)nc3c2)cc1C(=O)NCc1ccccc1OC1CCCC1 [Example 249, 5-{2-amino-[1,2,4]triazolo[1,5-a]pyridin-7-yl}-N-{[2-(cyclopentyloxy)phenyl]methyl}-2-methylpyridine-3-carboxamide] gave an IC50 [1, 3] of under 0.02 µM and an IC50 [2, 5] of under 0.02 µM.

CC(CCNC(=O)c1cc(-c2ccn3nc(N)nc3c2)cnc1N)c1ccccc1 (stereo not shown) [Example 65, 2-Amino-5-{2-amino-[1,2,4]triazolo[1,5-a]pyridin-7-yl}-N-(3-phenylbutyl)pyridine-3-carboxamide] showed an IC50 [1, 3] of under 0.02 µM and an IC50 [2, 4] of 0.02 to 0.2 µM.

In the case of Nc1nc2cc(-c3cncc(C(=O)NCc4ccccc4Sc4ccccc4CO)c3)ccn2n1 [Example 59, 5-{2-Amino-[1,2,4]triazolo[1,5-a]pyridin-7-yl}-N-{[(2-[2-(hydroxymethyl)phenyl]sulfanyl}phenyl)methyl]pyridine-3-carboxamide], the IC50 [1, 3] is reported as under 0.02 µM and the IC50 [2, 4] is reported as 0.02 to 0.2 µM.

Nc1nc2cc(-c3cc(C(=O)NCc4cc(OC(F)(F)F)ccc4F)cnc3Cl)ccn2n1 [Example 368, 5-(2-Amino-[1,2,4]triazolo[1,5-a]pyridin-7-yl)-6-chloro-N-(2-fluoro-5-(trifluoromethoxy)benzyl)nicotinamide] was tested, and the IC50 [1, 3] was under 0.02 µM and the IC50 [2, 4] was 0.02 to 0.2 µM.

Work on Cc1ncc(-c2ccn3nc(N)nc3c2)cc1C(=O)NCc1ccccc1OCC1CCCC1 [Example 39, 5-{2-Amino-[1,2,4]triazolo[1,5-a]pyridin-7-yl}-N-{[2-(cyclopentylmethoxy)phenyl]methyl}-2-methylpyridine-3-carboxamide] yielded an IC50 [1, 3] of under 0.02 µM and an IC50 [2, 4] of 0.02 to 0.2 µM.

In the case of COc1nc(C)c(-c2ccn3nc(N)nc3c2)cc1C(=O)N(C)[C@H](C)c1cc(OC(F)(F)F)ccc1F [Example 325, (R)-5-(2-amino-[1,2,4]triazolo[1,5-a]pyridin-7-yl)-N-(1-(2-fluoro-5-(trifluoromethoxy)phenyl)ethyl)-2-methoxy-N,6-dimethylnicotinamide], the IC50 [1, 6] is reported as 0.02 to 0.2 µM and the IC50 [2, 4] is reported as 0.02 to 0.2 µM.

With [2H]C([2H])([2H])[C@H](NC(=O)c1cc(-c2ccn3nc(N)nc3c2)cnc1C)c1cccc(OC(F)(F)F)c1 [Example 310, (S)-5-(2-amino-[1,2,4]triazolo[1,5-a]pyridin-7-yl)-2-methyl-N-(1-(3-(trifluoromethoxy)phenyl)ethyl-2,2,2-H3)nicotinamide] the IC50 [1, 6] was 0.02 to 0.2 µM and the IC50 [2, 7] was over 0.2 µM.

COc1ncc(-c2ccn3nc(N)nc3c2)cc1C(=O)NCc1ccccc1OCC1CCC1 [Example 149, 5-{2-amino-[1,2,4]triazolo[1,5-a]pyridin-7-yl}-N-{[2-(cyclobutylmethoxy)phenyl]methyl}-2-methoxypyridine-3-carboxamide] showed an IC50 [1, 3] of under 0.02 µM and an IC50 [2, 5] of under 0.02 µM.

In the case of CCOc1ncc(-c2ccn3nc(N)nc3c2)cc1C(=O)NCc1cc(F)ccc1OC1CCCC1 [Example 264, 5-{2-amino-[1,2,4]triazolo[1,5-a]pyridin-7-yl}-N-{[2-(cyclopentyloxy)-5-fluorophenyl]methyl}-2-ethoxypyridine-3-carboxamide], the IC50 [1, 3] is reported as under 0.02 µM and the IC50 [2, 5] is reported as under 0.02 µM.

For COc1nc(C)c(-c2ccn3nc(N)nc3c2)cc1C(=O)NCc1cc(F)cc(F)c1O[C@H]1CCOC1 [Example 351, (S)-5-(2-amino-[1,2,4]triazolo[1,5-a]pyridin-7-yl)-N-(3,5-difluoro-2-((tetrahydrofuran-3-yl)oxy)benzyl)-2-methoxy-6-methylnicotinamide], the IC50 [1, 3] was under 0.02 µM and the IC50 [2, 5] was under 0.02 µM.

COc1ncc(-c2ccn3nc(N)nc3c2)cc1C(=O)NCc1cccnc1OC1CCCC1 [Example 135, 5-{2-amino-[1,2,4]triazolo[1,5-a]pyridin-7-yl}-N-{[2-(cyclopentyloxy)pyridin-3-yl]methyl}-2-methoxypyridine-3-carboxamide] gave an IC50 [1, 3] of under 0.02 µM and an IC50 [2, 5] of under 0.02 µM.

Cc1ccc(-c2ccn3nc(N)nc3c2)nc1C(=O)N[C@H](C)c1cc(OC(F)(F)F)ccc1F [Example 403, (R)-6-(2-amino-[1,2,4]triazolo[1,5-a]pyridin-7-yl)-N-(1-(2-fluoro-5-(trifluoromethoxy)phenyl)ethyl)-3-methylpicolinamide] gave an IC50 [1, 3] of under 0.02 µM and an IC50 [2, 4] of 0.02 to 0.2 µM.

For COc1ncc(-c2ccn3nc(N)nc3c2)cc1C(=O)NCc1ccc(F)cc1OC1CCOCC1 [Example 80, 5-{2-Amino-[1,2,4]triazolo[1,5-a]pyridin-7-yl}-N-{[4-fluoro-2-(oxan-4-yloxy)phenyl]methyl}-2-methoxypyridine-3-carboxamide], the IC50 [1, 3] was under 0.02 µM and the IC50 [2, 4] was 0.02 to 0.2 µM.

COc1ncc(-c2ccn3nc(N)nc3c2)cc1C(=O)NCc1ccccc1OCC1CCCCC1 [Example 123, 5-{2-amino-[1,2,4]triazolo[1,5-a]pyridin-7-yl}-N-{[2-(cyclohexylmethoxy)phenyl]methyl}-2-methoxypyridine-3-carboxamide] showed an IC50 [1, 3] of under 0.02 µM and an IC50 [2, 4] of 0.02 to 0.2 µM.

Work on COc1nc(C)c(-c2ccn3nc(N)nc3c2)cc1C(=O)NCc1cc(F)cc(F)c1OC1CCOC(C)C1 (stereo not shown) [Example 352, 5-(2-amino-[1,2,4]triazolo[1,5-a]pyridin-7-yl)-N-(3,5-difluoro-2-((2-methyltetrahydro-2H-pyran-4-yl)oxy)benzyl)-2-methoxy-6-methylnicotinamide] yielded an IC50 [1, 3] of under 0.02 µM and an IC50 [2, 4] of 0.02 to 0.2 µM.

Work on CC(CCNC(=O)c1ccnc(-c2ccn3nc(N)nc3c2)c1)c1ccccc1 (stereo not shown) [Example 72, 2-{2-Amino-[1,2,4]triazolo[1,5-a]pyridin-7-yl}-N-(3-phenylbutyl)pyridine-4-carboxamide] yielded an IC50 [1, 6] of 0.02 to 0.2 µM and an IC50 [2, 7] of over 0.2 µM.

In the case of COc1nc(C)c(-c2ccn3nc(N)nc3c2)cc1C(=O)NCc1cccc(F)c1CN1CCCC1 [Example 326, 5-(2-Amino-[1,2,4]triazolo[1,5-a]pyridin-7-yl)-N-(3-fluoro-2-(pyrrolidin-1-ylmethyl)benzyl)-2-methoxy-6-methylnicotinamide], the IC50 [1, 6] is reported as 0.02 to 0.2 µM and the IC50 [2, 7] is reported as over 0.2 µM.

COc1ncc(-c2ccn3nc(N)nc3c2)cc1C(=O)NCc1cccc(OC(C)C)c1 [Example 139, 5-{2-amino-[1,2,4]triazolo[1,5-a]pyridin-7-yl}-2-methoxy-N-{[3-(propan-2-yloxy)phenyl]methyl}pyridine-3-carboxamide] gave an IC50 [1, 3] of under 0.02 µM and an IC50 [2, 4] of 0.02 to 0.2 µM.

Compound COc1nc(C)c(-c2ccn3nc(N)nc3c2)cc1C(=O)NCc1c(F)cccc1OCC1CCCC1 [Example 220, 5-{2-amino-[1,2,4]triazolo[1,5-a]pyridin-7-yl}-N-{[2-(cyclopentylmethoxy)-6-fluorophenyl]methyl}-2-methoxy-6-methylpyridine-3-carboxamide] has an IC50 [1, 3] of under 0.02 µM and an IC50 [2, 4] of 0.02 to 0.2 µM.

Cc1ccc(-c2ccn3nc(N)nc3c2)nc1C(=O)NCC[C@H](O)c1ccc(Cl)cc1 [Example 401, (S)-6-(2-amino-[1,2,4]triazolo[1,5-a]pyridin-7-yl)-N-(3-(4-chlorophenyl)-3-hydroxypropyl)-3-methylpicolinamide] was tested, and the IC50 [1, 3] was under 0.02 µM and the IC50 [2, 4] was 0.02 to 0.2 µM.

COc1ncc(-c2ccn3nc(N)nc3c2)cc1C(=O)NCc1cnccc1OC1CCCC1 [Example 21, 5-{2-Amino-[1,2,4]triazolo[1,5-a]pyridin-7-yl}-N-{[4-(cyclopentyloxy)pyridin-3-yl]methyl}-2-methoxypyridine-3-carboxamide] showed an IC50 [1, 3] of under 0.02 µM and an IC50 [2, 4] of 0.02 to 0.2 µM.

COc1ncc(-c2ccn3nc(N)nc3c2)cc1C(=O)NCCC(O)c1ccc(F)cc1 (stereo not shown) [Example 78, 5-{2-Amino-[1,2,4]triazolo[1,5-a]pyridin-7-yl}-N-[3-(4-fluorophenyl)-3-hydroxypropyl]-2-methoxypyridine-3-carboxamide] showed an IC50 [1, 6] of 0.02 to 0.2 µM and an IC50 [2, 4] of 0.02 to 0.2 µM.

Compound COc1ncc(-c2ccn3nc(N)nc3c2)cc1C(=O)NCc1c(Cl)cccc1Oc1ccccc1 [Example 155, 5-{2-amino-[1,2,4]triazolo[1,5-a]pyridin-7-yl}-N-[(2-chloro-6-phenoxyphenyl)methyl]-2-methoxypyridine-3-carboxamide] has an IC50 [1, 3] of under 0.02 µM and an IC50 [2, 5] of under 0.02 µM.

Compound CCc1ncc(-c2ccn3nc(N)nc3c2)cc1C(=O)NCc1cc(C(F)(F)F)ccc1F [Example 322, 5-(2-amino-[1,2,4]triazolo[1,5-a]pyridin-7-yl)-2-ethyl-N-(2-fluoro-5-(trifluoromethyl)benzyl)nicotinamide] has an IC50 [1, 6] of 0.02 to 0.2 µM and an IC50 [2, 4] of 0.02 to 0.2 µM.

[2H]C([2H])([2H])Oc1nc(C)c(-c2ccn3nc(N)nc3c2)cc1C(=O)NC(C)c1cc(OC(F)(F)F)ccc1F (single isomer, unassigned) [Example 97-1, 5-{2-amino-[1,2,4]triazolo[1,5-a]pyridin-7-yl}-N-{1-[2-fluoro-5-(trifluoromethoxy)phenyl]ethyl}-2-(deutero)methoxy-6-methylpyridine-3-carboxamide] gave an IC50 [1, 6] of 0.02 to 0.2 µM and an IC50 [2, 4] of 0.02 to 0.2 µM.

Reference: US10913738B2 (BRISTOL-MYERS SQUIBB COMPANY, priority 2017, dated 2021)
